Results published in US20060069132A1, “Azolecarboxamide herbicides” (priority 2004, published 2006).

Tests used:
barnyardgrass [1] = test: Test B pre-/postemergence herbicide test; format: in vivo, Echinochloa crus-galli; settings: for Plant response rating (0 to 100 scale), Barnyardgrass: 0 is no effect, preemergence
In short: (§1)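 Flooded paddy rice and barnyardgrass were treated at the 2-leaf stage; upland plantings received compound either on sown seed or on 1- to 4-leaf seedlings. All were kept 13–15 days in a greenhouse and scored visually, 0–100, relative to untreated plants.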

Surinam grass = test: Test B pre-/postemergence herbicide test; format: in vivo, Urochloa decumbens; settings: 125 g ai/ha; for Plant response rating (0 to 100 scale), Surinam Grass: 0 is no effect, 100 is complete control, preemergence
In short: (§2)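 Herbicidal effect was judged by eye on a 0–100 scale after plants stood 13 to 15 days in the greenhouse following pre- or postemergence treatment with surfactant-containing formulations.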

cocklebur = test: Test B pre-/postemergence herbicide test; format: in vivo, Xanthium strumarium; settings: for Plant response rating (0 to 100 scale), Cocklebur: 0 is no effect, preemergence
In short: as §1

corn = test: Test B pre-/postemergence herbicide test; format: in vivo, Zea mays; settings: for Plant response rating (0 to 100 scale), Corn: 0 is no effect, preemergence
In short: as §2

large crabgrass = test: Test B pre-/postemergence herbicide test; format: in vivo, Digitaria sanguinalis; settings: for Plant response rating (0 to 100 scale), Crabgrass, Large: 0 is no effect, preemergence
In short: as §2

giant foxtail = test: Test B pre-/postemergence herbicide test; format: in vivo, Setaria faberi; settings: for Plant response rating (0 to 100 scale), Foxtail, Giant: 0 is no effect, preemergence
In short: as §2

lambsquarters = test: Test B pre-/postemergence herbicide test; format: in vivo, Chenopodium album; settings: 125 g ai/ha
In short: as §2

morningglory = test: Test B pre-/postemergence herbicide test; format: in vivo, Ipomoea coccinea; settings: 125 g ai/ha; for Plant response rating (0 to 100 scale), Morningglory: 0 is no effect, 100 is complete control, preemergence
In short: as §1

pigweed = test: Test B pre-/postemergence herbicide test; format: in vivo, Amaranthus retroflexus; settings: 125 g ai/ha; for Plant response rating (0 to 100 scale), Pigweed: 0 is no effect, 100 is complete control, preemergence
In short: as §2

velvetleaf = test: Test B pre-/postemergence herbicide test; format: in vivo, Abutilon theophrasti; settings: 125 g ai/ha; for Plant response rating (0 to 100 scale), Velvetleaf: 0 is no effect, 100 is complete control, preemergence
In short: as §2

blackgrass = test: Test B postemergence herbicide test; format: in vivo, Alopecurus myosuroides
In short: (§3)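 After treating 2-leaf paddy plants or 2–18 cm postemergence plants (1 to 4 leaves) with formulated chemical, researchers kept them in a greenhouse for 13–15 days. Effects were judged visually versus controls: 0 indicates none, 100 total control.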

wheat = test: Test B postemergence herbicide test; format: in vivo, Triticum aestivum; parameters: key to Wheat plant response rating: 0 = no effect, 100 = complete control
In short: as §3

wild oat = test: Test B postemergence herbicide test; format: in vivo, Avena fatua; settings: 125 g ai/ha, visual rating, scale 0 (no effect) to 100 (complete control)
In short: as §3

rice = test: Test B flooded paddy test; format: in vivo, Oryza sativa; settings: 1000 g ai/ha, scale 0 to 100 (0 no effect, 100 complete control)
In short: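 Treated at 2-leaf (paddy) or 1–4-leaf, 2–18 cm (postemergence); greenhouse 13–15 d; visual score vs control, 0 none to 100 complete control; dash = not tested.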

[2] = system: small flower umbrella sedge; test: Test B flooded paddy test; format: in vivo, Cyperus difformis; settings: 1000 g ai/ha, scale 0 to 100 (0 no effect, 100 complete control)
In short: as §3

ducksalad = test: Test B flooded paddy test; format: in vivo, Heteranthera limosa; settings: 1000 g ai/ha, scale 0 to 100 (0 no effect, 100 complete control)
In short: as §3

barnyardgrass [3] = test: Test B flooded paddy test; format: in vivo, Echinochloa crus-galli; settings: 1000 g ai/ha, scale 0 to 100 (0 no effect, 100 complete control)
In short: as §3

[4] = 125 g ai/ha, 100 is complete control
[5] = 125 g ai/ha, visual rating, scale 0 (no effect) to 100 (complete control), postemergence
[6] = postemergence, 500 g ai/ha, scale 0 to 100, 0 is no effect, 100 is complete control
[7] = visual rating, scale 0 (no effect) to 100 (complete control), postemergence

CCc1nn(C(C)(C)C)nc1C(=O)Nc1cccc(C(=O)N2CC=CC2)c1 [Compound 366]
Plant response rating (0 to 100 scale), Barnyardgrass (barnyardgrass [1]; [4]): 70 | Barnyardgrass plant response rating (barnyardgrass [1]; [5]): 10 | Barnyardgrass plant response rating (barnyardgrass [1]; [6]): 10 | Plant response rating (0 to 100 scale), Surinam Grass (Surinam grass): 30 | Surinam Grass plant response rating (Surinam grass; [7]): 10 | Plant response rating (0 to 100 scale), Cocklebur (cocklebur; [4]): 0 | Cocklebur plant response rating (cocklebur; [5]): 30 | Cocklebur plant response rating (cocklebur; [6]): 50 | Plant response rating (0 to 100 scale), Corn (corn; [4]): 40 | Corn plant response rating (corn; [5]): 10 | Corn plant response rating (corn; [6]): 20 | Plant response rating (0 to 100 scale), Crabgrass, Large (large crabgrass; [4]): 40 | Crabgrass, Large plant response rating (large crabgrass; [5]): 10 | Crabgrass, Large plant response rating (large crabgrass; [6]): 20 | Plant response rating (0 to 100 scale), Foxtail, Giant (giant foxtail; [4]): 50 | Foxtail, Giant plant response rating (giant foxtail; [5]): 20 | Foxtail, Giant plant response rating (giant foxtail; [6]): 40 | Lambsquarters plant response rating (lambsquarters; [7]): 80 | Plant response rating (0 to 100 scale), Morningglory (morningglory): 30 | Plant response rating (0 to 100 scale), Pigweed (pigweed): 70 | Pigweed plant response rating (pigweed; [7]): 50 | Plant response rating (0 to 100 scale), Velvetleaf (velvetleaf): 0 | Velvetleaf plant response rating (velvetleaf; [7]): 10 | Blackgrass plant response rating (blackgrass; [5]): 40 | Blackgrass plant response rating (blackgrass; [6]): 50 | Wheat plant response rating (wheat; [5]): 20 | Wheat plant response rating (wheat; 500 g ai/ha, scale 0 to 100, 0 no effect, 100 complete control, preemergence): 90 | Oat, Wild plant response rating (wild oat; postemergence): 40 | Rice plant response rating (rice): 70 | Sedge, Umbrella plant response rating [2]: 90 | Ducksalad plant response rating (ducksalad): 100 | Barnyardgrass plant response rating (barnyardgrass [3]): 80

CCNC(=O)c1cccc(NC(=O)c2nn(C(C)(C)C)nc2CC)c1 [Compound 365, 2-(1,1-dimethylethyl)-5-ethyl-N-[3-[(ethylamino)carbonyl]phenyl]-2H-1,2,3-triazole-4-carboxamide]
Plant response rating (0 to 100 scale), Barnyardgrass (barnyardgrass [1]; [4]): 90 | pest or weed control at 125 g/ha (barnyardgrass [1]; Echinochloa crus-galli, post-emergence, 125 g ai/ha, visual rating, scale 0 (no effect) to 100 (complete control), read-out: Barnyardgrass plant response rating): 0% | pest or weed control at 500 g/ha (barnyardgrass [1]; Echinochloa crus-galli, post-emergence, postemergence, 500 g ai/ha, scale 0 to 100, 0 is no effect, 100 is complete control, read-out: Barnyardgrass plant response rating): 10% | Plant response rating (0 to 100 scale), Surinam Grass (Surinam grass): 70 | pest or weed control at 125 g/ha (Surinam grass; Urochloa decumbens, post-emergence, visual rating, scale 0 (no effect) to 100 (complete control), read-out: Surinam Grass plant response rating): 10% | Plant response rating (0 to 100 scale), Cocklebur (cocklebur; [4]): 10 | pest or weed control at 125 g/ha (cocklebur; Xanthium strumarium, post-emergence, 125 g ai/ha, visual rating, scale 0 (no effect) to 100 (complete control), read-out: Cocklebur plant response rating): 20% | pest or weed control at 500 g/ha (cocklebur; Xanthium strumarium, post-emergence, postemergence, 500 g ai/ha, scale 0 to 100, 0 is no effect, 100 is complete control, read-out: Cocklebur plant response rating): 60% | Plant response rating (0 to 100 scale), Corn (corn; [4]): 90 | plant injury at 125 g/ha (corn; Zea mays, post-emergence, 125 g ai/ha, visual rating, scale 0 (no effect) to 100 (complete control), read-out: Corn plant response rating): 0% | plant injury at 500 g/ha (corn; Zea mays, post-emergence, postemergence, 500 g ai/ha, scale 0 to 100, 0 is no effect, 100 is complete control, read-out: Corn plant response rating): 20% | Plant response rating (0 to 100 scale), Crabgrass, Large (large crabgrass; [4]): 100 | pest or weed control at 125 g/ha (large crabgrass; Digitaria sanguinalis, post-emergence, 125 g ai/ha, visual rating, scale 0 (no effect) to 100 (complete control), read-out: Crabgrass, Large plant response rating): 0% | pest or weed control at 500 g/ha (large crabgrass; Digitaria sanguinalis, post-emergence, postemergence, 500 g ai/ha, scale 0 to 100, 0 is no effect, 100 is complete control, read-out: Crabgrass, Large plant response rating): 80% | Plant response rating (0 to 100 scale), Foxtail, Giant (giant foxtail; [4]): 100 | pest or weed control at 125 g/ha (giant foxtail; Setaria faberi, post-emergence, 336 h, 125 g ai/ha, visual rating, scale 0 (no effect) to 100 (complete control), read-out: Foxtail, Giant plant response rating): 20% | pest or weed control at 500 g/ha (giant foxtail; Setaria faberi, post-emergence, 336 h, postemergence, 500 g ai/ha, scale 0 to 100, 0 is no effect, 100 is complete control, read-out: Foxtail, Giant plant response rating): 70% | Plant response rating (0 to 100 scale), Lambsquarters (lambsquarters; 0 is no effect, 100 is complete control, preemergence): 100 | pest or weed control at 125 g/ha (lambsquarters; Chenopodium album, post-emergence, 336 h, visual rating, scale 0 (no effect) to 100 (complete control), read-out: Lambsquarters plant response rating): 90% | Plant response rating (0 to 100 scale), Morningglory (morningglory): 50 | pest or weed control at 125 g/ha (morningglory; Ipomoea, post-emergence, 336 h, visual rating, scale 0 (no effect) to 100 (complete control), read-out: Morningglory plant response rating): 80% | Plant response rating (0 to 100 scale), Pigweed (pigweed): 100 | pest or weed control at 125 g/ha (pigweed; Amaranthus retroflexus, post-emergence, 336 h, visual rating, scale 0 (no effect) to 100 (complete control), read-out: Pigweed plant response rating): 40% | Plant response rating (0 to 100 scale), Velvetleaf (velvetleaf): 50 | pest or weed control at 125 g/ha (velvetleaf; Abutilon theophrasti, post-emergence, 336 h, visual rating, scale 0 (no effect) to 100 (complete control), read-out: Velvetleaf plant response rating): 10% | pest or weed control at 125 g/ha (blackgrass; Alopecurus myosuroides, post-emergence, 336 h, 125 g ai/ha, visual rating, scale 0 (no effect) to 100 (complete control), read-out: Blackgrass plant response rating): 40% | pest or weed control at 500 g/ha (blackgrass; Alopecurus myosuroides, post-emergence, 336 h, postemergence, 500 g ai/ha, scale 0 to 100, 0 is no effect, 100 is complete control, read-out: Blackgrass plant response rating): 90% | plant injury at 125 g/ha (wheat; Triticum aestivum, post-emergence, 336 h, 125 g ai/ha, visual rating, scale 0 (no effect) to 100 (complete control), read-out: Wheat plant response rating): 20% | pest or weed control at 125 g/ha (wild oat; Avena fatua, post-emergence, 336 h, read-out: Oat, Wild plant response rating): 30% | plant injury at 1000 g/ha (rice; Oryza sativa, 336 h, read-out: Rice plant response rating): 90% | pest or weed control at 1000 g/ha ([2]; Cyperus difformis, 336 h, read-out: Sedge, Umbrella plant response rating): 90% | pest or weed control at 1000 g/ha (ducksalad; Heteranthera limosa, 336 h, read-out: Ducksalad plant response rating): 90% | pest or weed control at 1000 g/ha (barnyardgrass [3]; Echinochloa crus-galli, 336 h, read-out: Barnyardgrass plant response rating): 90%
